Reference: ChEMBL document CHEMBL5214990, “Novel Aryl Alkamidazole Derivatives as Multifunctional Antifungal Inhibitors: Design, Synthesis, and Biological Evaluation” (J Med Chem, 2022)
In brackets after ≈: the same amount, converted by molar mass. Activity calls are given as the source filed them. The rule behind the calls is not given here.

Assays:
Candida albicans [1] = test: Antifungal activity against Candida albicans ATCC SC5314 assessed as inhibition of fungal growth measured after 72 hrs by CLSI based liquid medium dilution method; format: functional
Cryptococcus neoformans = test: Antifungal activity against Cryptococcus neoformans assessed as inhibition of fungal growth measured after 72 hrs by CLSI based liquid medium dilution method; format: functional
Candida tropicalis = test: Antifungal activity against Candida tropicalis ATCC 1369 assessed as inhibition of fungal growth measured after 72 hrs by CLSI based liquid medium dilution method; format: functional
Aspergillus fumigatus = test: Antifungal activity against Aspergillus fumigatus KM8001 assessed as inhibition of fungal growth measured after 72 hrs by CLSI based liquid medium dilution method; format: functional
Candida albicans [2] = test: Antifungal activity against fluconazole-resistant Candida albicans CaR assessed as inhibition of fungal growth measured after 72 hrs by CLSI based liquid medium dilution method; format: functional
Candida albicans [3] = test: Antifungal activity against fluconazole-resistant Candida albicans 632 assessed as inhibition of fungal growth measured after 72 hrs by CLSI based liquid medium dilution method; format: functional
Candida albicans [4] = test: Antifungal activity against fluconazole-resistant Candida albicans 901 assessed as inhibition of fungal growth measured after 72 hrs by CLSI based liquid medium dilution method; format: functional
Candida albicans [5] = test: Antifungal activity against fluconazole-resistant Candida albicans 904 assessed as inhibition of fungal growth measured after 72 hrs by CLSI based liquid medium dilution method; format: functional
[6] = target: T1, Lanosterol 14-alpha demethylase (Candida albicans (strain SC5314 / ATCC MYA-2876) (Yeast), UniProt P10613); test: Inhibition of CYP51 in Candida albicans ATCC SC5314 assessed as reduction in substrate consumption using lanosterol as substrate preincubated for 30 mins followed by substrate addition and measured after 60 mins by HPLC analysis
Candida albicans [7] = test: Antifungal activity against Candida albicans assessed as inhibition of fungal cell proliferation by measuring decrease in fungal cell density measured after 24 hrs; format: functional, organism-based
Candida albicans [8] = test: Induction of mitochondrial membrane depolarization in Candida albicans assessed as fungal cells with intact mitochondria measured after 24 hrs by JC-1 staining based flow cytometry (reference value: 95.9%); format: functional
Candida albicans [9] = test: Induction of apoptosis in Candida albicans assessed as early apoptotic cells measured after 24 hrs by Annexin V-FITC/PI staining based flow cytometry (reference value: 0.46%); format: functional
Candida albicans [10] = test: Induction of apoptosis in Candida albicans assessed as necrotic cells measured after 24 hrs by Annexin V-FITC/PI staining based flow cytometry (reference value: 3.37%); format: functional
[11] = target: T1, Lanosterol 14-alpha demethylase; test: Inhibition of CYP51 in Candida albicans ATCC SC5314 assessed as ergosterol content at 4 ug/ml measured after 48 hrs by GC-MS analysis (reference value: 95.61%); parameters: scale not given: the % may be the effect or the level left; details: at 4 µg/mL
[12] = target: T1, Lanosterol 14-alpha demethylase; test: Inhibition of CYP51 in Candida albicans ATCC SC5314 assessed as eburicol content at 4 ug/ml measured after 48 hrs by GC-MS analysis (reference value: 1.84%); parameters: scale not given: the % may be the effect or the level left; details: at 4 µg/mL
[13] = target: T1, Lanosterol 14-alpha demethylase; test: Inhibition of CYP51 in Candida albicans ATCC SC5314 assessed as unknown sterol content at 4 ug/ml measured after 48 hrs by GC-MS analysis; parameters: scale not given: the % may be the effect or the level left; details: at 4 µg/mL
Candida albicans [14] = test: Antifungal activity against Candida albicans infected in mouse assessed as reduction in fungal endogenous infection symptoms at 20 mg/kg, ip administered on days 2,4,6,8,10,12 and measured on day 14 by GMS staining based analysis; format: functional, organism-based; details: time 13.0 day
Candida albicans [15] = test: Antifungal activity against Candida albicans infected in mouse assessed as reduction in fungal proliferation in the infection region at 20 mg/kg, ip administered on days 2,4,6,8,10,12 and measured on day 14 by GMS staining based analysis; format: functional, organism-based; details: time 13.0 day
Candida albicans [16] = test: Antifungal activity against Candida albicans infected in mouse assessed as reduction in necrotic cell fragments in intercellular spaces of the infection region at 20 mg/kg, ip administered on days 2,4,6,8,10,12 and measured on day 14 by GMS staining based analysis; format: functional, organism-based; details: time 13.0 day
Candida albicans [17] = test: Antifungal activity against Candida albicans infected in mouse assessed as reduction in fungal proliferation in the infection region at 20 mg/kg, ip administered on days 2,4,6,8,10,12 and measured on day 14 by hematoxylin-eosin staining based analysis; format: functional, organism-based; details: time 13.0 day
Candida albicans [18] = test: Antifungal activity against Candida albicans infected in mouse assessed as reduction in total amount of fungal cells in infection region at 20 mg/kg, ip administered on days 2,4,6,8,10,12 and measured on day 14 by hematoxyin-eosin staining based analysis; format: functional, organism-based; details: time 13.0 day
Candida albicans [19] = test: Antifungal activity against Candida albicans infected in mouse assessed as disappearance of nuclear aggregation in the infection region at 20 mg/kg, ip administered on days 2,4,6,8,10,12 and measured on day 14 by hematoxyin-eosin staining based analysis; format: functional, organism-based; details: time 13.0 day
Candida albicans [20] = test: Antifungal activity against Candida albicans infected in mouse assessed as reduction in necrotic cell fragments in intercellular spaces of the infection region at 20 mg/kg, ip administered on days 2,4,6,8,10,12 and measured on day 14 by hematoxyin-eosin staining based analysis; format: functional, organism-based; details: time 13.0 day
[21] = Hepatotoxicity in mouse infected with Candida albicans assessed as plasma ALT level at 20 mg/kg, ip administered on days 2,4,6,8,10,12 and measured on day 14 (reference value: 33.5 +/-3.4 IU/L); format: toxicity, organism-based; details: in vivo, 312 h, time 13 day
[22] = Renal toxicity in mouse infected with Candida albicans assessed as blood urea nitrogen level at 20 mg/kg, ip administered on days 2,4,6,8,10,12 and measured on day 14 (reference value: 16.2 +/-1.6 mmol/L); format: organism-based; details: in vivo, 312 h, time 13 day
Mus musculus [23] = test: Anti-inflammatory activity in mouse infected with Candida albicans assessed as reduction in COX-2 expression in infection tissues at 20 mg/kg, ip administered on days 2,4,6,8,10,12 and measured on day 14 by western blot analysis; format: functional, organism-based; details: time 13.0 day
Mus musculus [24] = test: Anti-inflammatory activity in mouse infected with Candida albicans assessed as reduction in NF-kappaB p65 expression in infection tissues at 20 mg/kg, ip administered on days 2,4,6,8,10,12 and measured on day 14 by western blot analysis; format: functional, organism-based; details: time 13.0 day
Mus musculus [25] = test: Anti-inflammatory activity in mouse infected with Candida albicans assessed as reduction in NLRP3 expression in infection tissues at 20 mg/kg, ip administered on days 2,4,6,8,10,12 and measured on day 14 by western blot analysis; format: functional, organism-based; details: time 13.0 day
Mus musculus [26] = test: Anti-inflammatory activity in mouse infected with Candida albicans assessed as reduction in NF-kappaB p65 expression in spleen at 20 mg/kg, ip administered on days 2,4,6,8,10,12 and measured on day 14 by immunohistochemical analysis; format: functional, organism-based; details: time 13.0 day
Mus musculus [27] = test: Anti-inflammatory activity in mouse infected with Candida albicans assessed as reduction in PD-L1 expression in spleen at 20 mg/kg, ip administered on days 2,4,6,8,10,12 and measured on day 14 by immunohistochemical analysis; format: functional, organism-based; details: time 13.0 day
Mus musculus [28] = test: Anti-inflammatory activity in mouse infected with Candida albicans assessed as reduction in PD-L1 expression in infection tissue at 20 mg/kg, ip administered on days 2,4,6,8,10,12 and measured on day 14 by western blot analysis; format: functional, organism-based; details: time 13.0 day

T1 sequence (P10613 whole entry): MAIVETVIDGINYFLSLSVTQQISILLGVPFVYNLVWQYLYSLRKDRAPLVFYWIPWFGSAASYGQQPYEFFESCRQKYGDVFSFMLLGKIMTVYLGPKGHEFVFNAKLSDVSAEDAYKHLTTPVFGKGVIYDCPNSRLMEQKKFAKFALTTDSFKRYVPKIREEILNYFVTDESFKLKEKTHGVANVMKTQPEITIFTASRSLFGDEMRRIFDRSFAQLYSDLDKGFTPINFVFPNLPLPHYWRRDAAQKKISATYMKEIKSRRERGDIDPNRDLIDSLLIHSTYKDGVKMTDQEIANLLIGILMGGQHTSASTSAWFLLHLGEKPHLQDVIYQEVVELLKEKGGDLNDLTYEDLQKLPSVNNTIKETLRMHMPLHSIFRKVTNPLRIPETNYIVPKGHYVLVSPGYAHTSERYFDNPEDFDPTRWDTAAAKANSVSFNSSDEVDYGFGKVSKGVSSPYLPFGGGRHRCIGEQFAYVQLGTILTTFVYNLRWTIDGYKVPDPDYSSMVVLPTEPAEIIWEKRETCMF

| SMILES | MIC50 (Candida albicans [1]) | MIC50 (Cryptococcus neoformans) | MIC50 (Candida tropicalis) | MIC50 (Aspergillus fumigatus) | MIC50 (Candida albicans [2]) | MIC50 (Candida albicans [3]) | MIC50 (Candida albicans [4]) | MIC50 (Candida albicans [5]) | IC50 [6] | Activity (Candida albicans [7]) | Activity (Candida albicans [8]) | Activity (Candida albicans [9]) | Activity (Candida albicans [10]) | Activity [11] | Activity [12] | Activity [13] | Activity (Candida albicans [14]) | Activity (Candida albicans [15]) | Activity (Candida albicans [16]) | Activity (Candida albicans [17]) | further results |
| --- | --- | --- | --- | --- | --- | --- | --- | --- | --- | --- | --- | --- | --- | --- | --- | --- | --- | --- | --- | --- | --- |
| C[C@H](C(=O)N(C)CC(O)(Cn1ccnc1)c1ccc(Cl)cc1Cl)c1cccc(C(=O)c2ccccc2)c1 (stereo partly drawn) | 0.125 µg/mL (≈ 0.233 µM) | 0.25 µg/mL (≈ 0.466 µM) | 0.25 µg/mL (≈ 0.466 µM) | 2 µg/mL (≈ 3.73 µM) | 1 µg/mL (≈ 1.86 µM) | 2 µg/mL (≈ 3.73 µM) | 0.5 µg/mL (≈ 0.932 µM) | 1 µg/mL (≈ 1.86 µM) | 160 nM | Active | 53.1% | 2.13% | 26% | 7.95% | 50.87% | 2.61% | Active | Active | Active | Active | Activity (Candida albicans [18]): Active; Activity (Candida albicans [19]): Active; Activity (Candida albicans [20]): Active; Activity [21]: 43.2 IU/L; Activity [22]: 17 mmol/L; Activity (Mus musculus [23]): Active; Activity (Mus musculus [24]): Active; Activity (Mus musculus [25]): Active; Activity (Mus musculus [26]): Active; Activity (Mus musculus [27]): Active; Activity (Mus musculus [28]): Active |
| OC(Cn1cncn1)(Cn1cncn1)c1ccc(F)cc1F [FLUCONAZOLE] | 0.5 µg/mL (≈ 1.63 µM) | 0.5 µg/mL (≈ 1.63 µM) | 0.5 µg/mL (≈ 1.63 µM) | > 8 µg/mL | > 8 µg/mL | > 8 µg/mL | > 8 µg/mL | > 8 µg/mL | 110 nM | Active | 60.8% | 12.3% | 13% | 20.57% | 40.17% | 4.09% | Active | Active | Active | Active | Activity (Candida albicans [18]): Active; Activity (Candida albicans [19]): Active; Activity (Candida albicans [20]): Active; Activity [21]: 46.1 IU/L; Activity [22]: 24.4 mmol/L; Activity (Mus musculus [23]): Active; Activity (Mus musculus [24]): Active; Activity (Mus musculus [25]): Active; Activity (Mus musculus [26]): Active; Activity (Mus musculus [27]): Active; Activity (Mus musculus [28]): Active |
| C[C@H](C(=O)N(C)CC(O)(Cn1ccnc1)c1ccc(Cl)cc1)c1ccc(-c2ccccc2)c(F)c1 (stereo partly drawn) | 0.125 µg/mL (≈ 0.254 µM) | 0.5 µg/mL (≈ 1.02 µM) | 0.25 µg/mL (≈ 0.508 µM) | 2 µg/mL (≈ 4.07 µM) | 1 µg/mL (≈ 2.03 µM) | 4 µg/mL (≈ 8.13 µM) | 0.5 µg/mL (≈ 1.02 µM) | 2 µg/mL (≈ 4.07 µM) | 190 nM | Active | 32.6% | 1.8% | 34.3% | 13.51% | 43.28% | 3.47% | Active | Active | Active | Active | Activity (Candida albicans [18]): Active; Activity (Candida albicans [19]): Active; Activity (Candida albicans [20]): Active; Activity [21]: 42.4 IU/L; Activity [22]: 20.5 mmol/L; Activity (Mus musculus [23]): Active; Activity (Mus musculus [24]): Active; Activity (Mus musculus [25]): Active; Activity (Mus musculus [26]): Active; Activity (Mus musculus [27]): Active; Activity (Mus musculus [28]): Active |
